Measured values reported in PMC7031696 (Cell chemical biology, 2019).
Read-outs that look alike come from different tables or passages of the source.

Experiments:
[1] = test system: Plasmodium falciparum 3D7-A10 parasites; assay: Stage specificity assay (8-h exposure of synchronized stages, IC50^8h); format: cell-based; details: for IC50: Plasmodium falciparum
[2] = test system: asynchronous 3D7-A10 parasite cultures; assay: Standard 72-h exposure asexual blood stage susceptibility assay (IC50^72h); format: cell-based, Plasmodium falciparum; details: Plasmodium falciparum, 3D7, 72 h, read-out: Overall (72hr assay) Mean IC50 (IC50^72h)
[3] = test system: 3D7-MR4 trophozoite parasite-infected RBCs; assay: Metabolomic profiling (hydrophilic metabolite changes, UHPLC-MS); format: cell-based, Plasmodium falciparum
[4] = test system: 3D7-MR4 trophozoite parasite-infected RBCs; details: 10 × IC50^72h; ref Allman et al., 2016; cited from earlier work

Structure (SMILES): C[C@H]1Cc2c([nH]c3cc(Cl)c(F)cc23)[C@@]2(N1)C(=O)Nc1ccc(Cl)cc12 [KAE609, reference compound]
- Ratio lowest IC50 8hr/IC50 72hr ([1]; 3D7-A10): 1.5
- overall activity profile (stages on which active) ([1]; 8-h exposures): inactive against rings yet active against early trophozoites and later stages
- IC50 ([1]; 3D7, read-out: Early rings IC50 (IC50^8h)): > 1250 nM
- IC50 ([1]; 3D7, read-out: Early trophozoites Mean IC50 (IC50^8h)): 3.2 nM
- IC50 ([1]; 3D7, read-out: Late rings IC50 (IC50^8h)): > 1250 nM
- IC50 ([1]; 3D7, read-out: Late trophozoites Mean IC50 (IC50^8h)): 1.1 nM
- IC50 ([1]; 3D7, read-out: Schizonts Mean IC50 (IC50^8h)): 1.2 nM
- IC50 [2]: 0.73 nM
- Log2(fold changes) 3-phosphoglycerate ([3]; metabolite 3-phosphoglycerate, log2 fold change): 0.0100
- Log2(fold changes) 4-Pyridoxic acid ([3]; metabolite 4-Pyridoxic acid, log2 fold change): -0.6000
- Log2(fold changes) 4-aminobutyrate ([3]; metabolite 4-aminobutyrate, log2 fold change): -0.5400
- Log2(fold changes) 4-phosphopantetheine ([3]; metabolite 4-phosphopantetheine, log2 fold change): 0.0000
- Log2(fold changes) 4-phosphopantothenate ([3]; metabolite 4-phosphopantothenate, log2 fold change): -0.1500
- Log2(fold changes) 5-aminopentanoic acid ([3]; metabolite 5-aminopentanoic acid, log2 fold change): 0.0000
- Log2(fold changes) 5-methyl-THF ([3]; metabolite 5-methyl-THF, log2 fold change): 0.0000
- Log2(fold changes) 5-phosphoribosyl-1-pyrophosphate ([3]; metabolite 5-phosphoribosyl-1-pyrophosphate, log2 fold change): -2.9800
- Log2(fold changes) 6-phospho-D-gluconate ([3]; metabolite 6-phospho-D-gluconate, log2 fold change): -0.2800
- Log2(fold change) HVDD ([3]; metabolite HVDD): 0.0000
- Log2(fold change) Hydroxyisocaproic acid ([3]; metabolite Hydroxyisocaproic acid): 0.0000
- Log2(fold change) IDP ([3]; metabolite IDP): 0.0000
- Log2(fold change) IMP ([3]; metabolite IMP): 0.3800
- Log2(fold change) Inositol ([3]; metabolite Inositol): 0.0000
- Log2(fold change) Isopentyl-PP ([3]; metabolite Isopentyl-PP): 0.0000
- Log2(fold change) L-arginino-succinate ([3]; metabolite L-arginino-succinate): 0.0000
- Log2(fold change) LD ([3]; metabolite LD): -1.3200
- Log2(fold change) Myristoyl/tetradecanoyl-CoA ([3]; metabolite Myristoyl/tetradecanoyl-CoA): 0.0000
- Log2(fold change) N-Acetyl-L-alanine ([3]; metabolite N-Acetyl-L-alanine): -1.4200
- Log2(fold change) N-acetyl-L-ornithine ([3]; metabolite N-acetyl-L-ornithine): -1.2700
- Log2(fold change) N-acetyl-glucosamine-1/6-phosphate ([3]; metabolite N-acetyl-glucosamine-1/6-phosphate): -0.2300
- Log2(fold change) N-acetyl-glutamate ([3]; metabolite N-acetyl-glutamate): -0.2700
- Log2(fold change) N-acetyl-glutamine ([3]; metabolite N-acetyl-glutamine): -0.4300
- Log2(fold change) N-carbamoyl-L-aspartate ([3]; metabolite N-carbamoyl-L-aspartate): -4.5700
- Log2(fold change) NAD+ ([3]; metabolite NAD+): -0.4000
- Log2(fold change) NADH ([3]; metabolite NADH): 0.0300
- Log2(fold change) NADP+ ([3]; metabolite NADP+): -0.1200
- Log2(fold change) NADPH ([3]; metabolite NADPH): 0.3500
- Log2(fold change) O-acetyl-L-serine ([3]; metabolite O-acetyl-L-serine): 0.0000
- Log2(fold change) Octoluse 8/1P ([3]; metabolite Octoluse 8/1P): -0.7200
- Log2(fold change) Octoluse Bisphosphate ([3]; metabolite Octoluse Bisphosphate): -1.2000
- Log2(fold change) PD ([3]; metabolite PD): -1.2400
- Log2(fold change) PE ([3]; metabolite PE): -3.4900
- Log2(fold change) PEE ([3]; metabolite PEE): -5.3200
- Log2(fold change) PEEK ([3]; metabolite PEEK): -1.5400
- Log2(fold change) PVNF ([3]; metabolite PVNF): -2.0700
- Log2(fold change) Pyroglutamic acid ([3]; metabolite Pyroglutamic acid): -0.0600
- Log2(fold change) Pyrophosphate ([3]; metabolite Pyrophosphate): -3.3800
- Log2(fold change) Ribose-5-phosphate ([3]; metabolite Ribose-5-phosphate): 0.0000
- Log2(fold change) S-adenosyl-L-homocysteine ([3]; metabolite S-adenosyl-L-homocysteine): -1.6400
- Log2(fold change) S-adenosyl-L-methioninamine ([3]; metabolite S-adenosyl-L-methioninamine): 0.0000
- Log2(fold change) S-adenosyl-L-methionine ([3]; metabolite S-adenosyl-L-methionine): 0.0000
- Log2(fold change) S-methyl-5'-thioadenosine ([3]; metabolite S-methyl-5'-thioadenosine): -0.5300
- Log2(fold change) SD ([3]; metabolite SD): -3.7000
- Log2(fold change) SDL ([3]; metabolite SDL): 0.0000
- Log2(fold change) SID ([3]; metabolite SID): 0.0000
- Log2(fold change) Sedoheptulose bisphosphate ([3]; metabolite Sedoheptulose bisphosphate): -1.3400
- Log2(fold change) Thiamine pyrophosphate ([3]; metabolite Thiamine pyrophosphate): 0.0000
- Log2(fold changes) UDP-D-glucose ([3]; metabolite UDP-D-glucose, log2 fold change): -0.2000
- Log2(fold changes) UDP-D-glucuronate ([3]; metabolite UDP-D-glucuronate, log2 fold change): -0.3600
- Log2(fold changes) UDP-N-acetyl-glucosamine ([3]; metabolite UDP-N-acetyl-glucosamine, log2 fold change): 0.0300
- Log2(fold changes) UDP ([3]; metabolite UDP, log2 fold change): -0.9600
- Log2(fold changes) UMP ([3]; metabolite UMP, log2 fold change): -0.3800
- Log2(fold changes) UTP ([3]; metabolite UTP, log2 fold change): -2.0500
- Log2(fold change) hydroxyphenylpyruvate ([3]; metabolite hydroxyphenylpyruvate): 0.0000
- Log2(fold change) hydroxyproline/Aminolevulinate ([3]; metabolite hydroxyproline/Aminolevulinate): 0.0000
- Log2(fold change) hypoxanthine ([3]; metabolite hypoxanthine): 0.2700
- Log2(fold change) indole ([3]; metabolite indole): 0.1700
- Log2(fold change) inosine ([3]; metabolite inosine): 0.1600
- Log2(fold change) isoleucine ([3]; metabolite isoleucine): 0.0000
- Log2(fold change) lactate ([3]; metabolite lactate): -1.3100
- Log2(fold change) leucine ([3]; metabolite leucine): 0.0000
- Log2(fold change) lysine ([3]; metabolite lysine): 0.0000
- Log2(fold change) malate ([3]; metabolite malate): -0.0600
- Log2(fold change) maleic acid ([3]; metabolite maleic acid): 0.0000
- Log2(fold change) methionine ([3]; metabolite methionine): 0.0000
- Log2(fold change) myo-inositol ([3]; metabolite myo-inositol): -3.2700
- Log2(fold change) nicotinamide mononucleotide ([3]; metabolite nicotinamide mononucleotide): 0.0000
- Log2(fold change) nicotinate ([3]; metabolite nicotinate): 0.7800
- Log2(fold change) ornithine ([3]; metabolite ornithine): -0.1500
- Log2(fold change) orotate ([3]; metabolite orotate): 0.9100
- Log2(fold change) orotidine-5'-phosphate ([3]; metabolite orotidine-5'-phosphate): 0.0000
- Log2(fold change) oxaloacetate ([3]; metabolite oxaloacetate): 0.0000
- Log2(fold change) p-aminobenzoate ([3]; metabolite p-aminobenzoate): 0.0000
- Log2(fold change) p-hydroxybenzoate ([3]; metabolite p-hydroxybenzoate): 0.5800
- Log2(fold change) pantothenate ([3]; metabolite pantothenate): 0.0000
- Log2(fold change) phenylalanine ([3]; metabolite phenylalanine): 0.0000
- Log2(fold change) phenylpyruvate ([3]; metabolite phenylpyruvate): -0.7100
- Log2(fold change) phosphoenolpyruvate ([3]; metabolite phosphoenolpyruvate): 0.4500
- Log2(fold change) prephenate ([3]; metabolite prephenate): 0.0000
- Log2(fold change) proline ([3]; metabolite proline): 0.0000
- Log2(fold change) pyridoxine ([3]; metabolite pyridoxine): 0.0000
- Log2(fold change) pyruvate ([3]; metabolite pyruvate): -1.3400
- Log2(fold change) riboflavin ([3]; metabolite riboflavin): 0.0000
- Log2(fold change) ribose ([3]; metabolite ribose): 0.0000
- Log2(fold change) ribose-phosphate ([3]; metabolite ribose-phosphate): -0.5600
- Log2(fold change) ribulose-5-phosphate ([3]; metabolite ribulose-5-phosphate): 0.0000
- Log2(fold change) serine ([3]; metabolite serine): 0.0000
- Log2(fold change) sn-glycerol-3-phosphate ([3]; metabolite sn-glycerol-3-phosphate): 0.6100
- Log2(fold change) succinate/Methylmalonic acid ([3]; metabolite succinate/Methylmalonic acid): 0.1400
- Log2(fold change) succinyl-CoA/methylmalonyl-CoA ([3]; metabolite succinyl-CoA/methylmalonyl-CoA): 0.0000
- Log2(fold change) taurine ([3]; metabolite taurine): 0.0000
- Log2(fold change) thiamine ([3]; metabolite thiamine): 0.0000
- Log2(fold change) threonine/homoserine ([3]; metabolite threonine/homoserine): 0.0000
- Log2(fold change) thymidine ([3]; metabolite thymidine): 0.7900
- Log2(fold changes) thymine ([3]; metabolite thymine, log2 fold change): -0.5500
- Log2(fold changes) trehalose-6-Phosphate ([3]; metabolite trehalose-6-Phosphate, log2 fold change): 0.0000
- Log2(fold changes) tryptophan ([3]; metabolite tryptophan, log2 fold change): 0.0000
- Log2(fold changes) tyrosine ([3]; metabolite tyrosine, log2 fold change): 0.0000
- Log2(fold changes) uridine ([3]; metabolite uridine, log2 fold change): -0.4400
- levels of cAMP [4]: decreased
- levels of the deoxyribonucleotides dAMP and dTMP [4]: increased
- nucleoside di- and tri-phosphate levels (GDP, UDP, GTP, dATP, dGTP/ATP, dUTP) [4]: decreased
- peptide levels (hemoglobin catabolism signature) [4]: decreased peptide levels
